Laboratory results from ChEMBL document CHEMBL5360654, “Indazole as a Phenol Bioisostere: Structure-Affinity Relationships of GluN2B-Selective NMDA Receptor Antagonists” (J Med Chem, 2023).
The source made the active and inactive calls. The rule behind the calls is not given here.

Experiments:
[1] = biological target: T1, Glutamate receptor ionotropic, NMDA 2B (Homo sapiens, UniProt Q05586+Q13224); assay: Displacement of [3H]ifenprodil from human GluN2B expressed in mouse L-M(TK-) cell membrane coexpressing GluN1a assessed as inhibition constant measured after 120 mins by competitive binding assay; type: cell membranes
T1 sequence (Q13224 whole entry, one chain of several): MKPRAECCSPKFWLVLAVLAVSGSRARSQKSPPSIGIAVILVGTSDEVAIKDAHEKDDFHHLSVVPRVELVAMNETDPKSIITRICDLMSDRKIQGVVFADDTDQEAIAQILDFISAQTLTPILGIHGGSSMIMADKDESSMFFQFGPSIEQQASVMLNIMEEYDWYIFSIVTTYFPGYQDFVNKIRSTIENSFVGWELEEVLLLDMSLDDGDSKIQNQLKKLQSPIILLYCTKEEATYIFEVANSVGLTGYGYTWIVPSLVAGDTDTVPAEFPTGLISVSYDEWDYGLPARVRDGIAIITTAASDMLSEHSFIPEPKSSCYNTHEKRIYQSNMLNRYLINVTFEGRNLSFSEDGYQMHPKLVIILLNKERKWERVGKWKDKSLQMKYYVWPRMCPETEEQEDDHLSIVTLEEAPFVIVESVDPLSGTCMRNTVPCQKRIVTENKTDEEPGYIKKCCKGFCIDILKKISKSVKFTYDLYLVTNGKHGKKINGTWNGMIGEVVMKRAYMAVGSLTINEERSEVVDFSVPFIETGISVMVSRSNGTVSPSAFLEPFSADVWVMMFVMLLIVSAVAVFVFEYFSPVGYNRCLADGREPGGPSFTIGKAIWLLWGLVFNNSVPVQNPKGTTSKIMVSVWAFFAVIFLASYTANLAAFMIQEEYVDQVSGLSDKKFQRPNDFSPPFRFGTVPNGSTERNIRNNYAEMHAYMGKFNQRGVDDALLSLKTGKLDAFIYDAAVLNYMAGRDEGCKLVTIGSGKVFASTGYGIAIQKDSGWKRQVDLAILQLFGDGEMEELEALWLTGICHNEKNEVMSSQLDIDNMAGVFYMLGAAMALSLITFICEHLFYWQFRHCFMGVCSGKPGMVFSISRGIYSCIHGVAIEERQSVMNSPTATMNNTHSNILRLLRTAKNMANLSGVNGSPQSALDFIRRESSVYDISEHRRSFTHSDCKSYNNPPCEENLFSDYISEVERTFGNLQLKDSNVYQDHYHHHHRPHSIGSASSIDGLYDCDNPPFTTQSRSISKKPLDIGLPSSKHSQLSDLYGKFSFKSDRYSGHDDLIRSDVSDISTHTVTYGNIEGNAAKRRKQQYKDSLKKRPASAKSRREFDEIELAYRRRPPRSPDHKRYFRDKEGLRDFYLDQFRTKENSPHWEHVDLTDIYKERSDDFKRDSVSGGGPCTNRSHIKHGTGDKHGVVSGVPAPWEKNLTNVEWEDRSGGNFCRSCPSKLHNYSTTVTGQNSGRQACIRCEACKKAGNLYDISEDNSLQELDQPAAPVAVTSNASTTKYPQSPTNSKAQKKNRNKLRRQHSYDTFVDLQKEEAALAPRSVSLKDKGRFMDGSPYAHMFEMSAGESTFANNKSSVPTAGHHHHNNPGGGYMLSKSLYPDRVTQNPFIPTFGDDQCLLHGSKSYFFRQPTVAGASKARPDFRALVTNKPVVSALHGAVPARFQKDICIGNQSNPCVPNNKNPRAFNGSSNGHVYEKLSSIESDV

[2] = biological target: T2, Sigma intracellular receptor 2 (Rattus norvegicus, UniProt Q5U3Y7); assay: Displacement of [3H]di-o-tolylguanidine from sigma2 receptor in rat liver membrane assessed as inhibition constant measured after 120 mins by scintillation counting method; type: cell membranes
T2 sequence (Q5U3Y7 whole entry): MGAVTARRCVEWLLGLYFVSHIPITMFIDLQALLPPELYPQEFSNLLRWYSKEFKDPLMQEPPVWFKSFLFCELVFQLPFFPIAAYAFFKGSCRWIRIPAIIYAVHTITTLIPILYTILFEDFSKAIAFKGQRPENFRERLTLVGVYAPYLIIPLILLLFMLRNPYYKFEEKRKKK

[3] = biological target: Sigma non-opioid intracellular receptor 1 (Cavia porcellus, UniProt Q60492); assay: Displacement of [3H]-(+)-pentazocine from sigma1 receptor in guinea pig brain membrane assessed as inhibition constant measured after 120 mins by scintillation counting method; type: cell membranes
Chain of Sigma non-opioid intracellular receptor 1 (Q60492 whole entry): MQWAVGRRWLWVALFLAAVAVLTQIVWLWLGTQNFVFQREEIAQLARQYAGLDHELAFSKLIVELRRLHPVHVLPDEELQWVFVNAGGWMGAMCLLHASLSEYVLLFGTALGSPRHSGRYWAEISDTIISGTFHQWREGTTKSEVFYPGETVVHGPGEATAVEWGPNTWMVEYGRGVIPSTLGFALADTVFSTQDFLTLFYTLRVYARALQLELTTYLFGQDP

[4] = biological target: Glutamate NMDA receptor; GRIN1/GRIN2B (Homo sapiens, UniProt Q05586+Q13224); assay: Antagonist activity at GluN1A/GluN2B receptor (unknown origin) expressed in Xenopus oocytes by voltage clamp method; type: cell-based, Oocyte
Chain of Glutamate NMDA receptor; GRIN1/GRIN2B (Q13224 whole entry, other chains not shown): as the sequence (Q13224 whole entry, one chain of several) above

[5] = Lipophilicity, log D of compound at pH 7.4 by LC-MS analysis; type: physicochemical; conditions: buffer
[6] = biological target: Glutamate receptor ionotropic, NMDA 2B (Homo sapiens) (UniProt Q13224); assay: Antagonist activity at GluN2B receptor (unknown origin) expressed in Xenopus oocytes coexpressing GluN1a at 10 uM at -70 mV holding potential in presence of (S)-glutamate/glycine by TEVC analysis relative to control; type: cell-based; conditions: Oocyte, filed as antagonist
Chain of Glutamate receptor ionotropic, NMDA 2B (Homo sapiens) (Q13224 27-1484 limits assumed): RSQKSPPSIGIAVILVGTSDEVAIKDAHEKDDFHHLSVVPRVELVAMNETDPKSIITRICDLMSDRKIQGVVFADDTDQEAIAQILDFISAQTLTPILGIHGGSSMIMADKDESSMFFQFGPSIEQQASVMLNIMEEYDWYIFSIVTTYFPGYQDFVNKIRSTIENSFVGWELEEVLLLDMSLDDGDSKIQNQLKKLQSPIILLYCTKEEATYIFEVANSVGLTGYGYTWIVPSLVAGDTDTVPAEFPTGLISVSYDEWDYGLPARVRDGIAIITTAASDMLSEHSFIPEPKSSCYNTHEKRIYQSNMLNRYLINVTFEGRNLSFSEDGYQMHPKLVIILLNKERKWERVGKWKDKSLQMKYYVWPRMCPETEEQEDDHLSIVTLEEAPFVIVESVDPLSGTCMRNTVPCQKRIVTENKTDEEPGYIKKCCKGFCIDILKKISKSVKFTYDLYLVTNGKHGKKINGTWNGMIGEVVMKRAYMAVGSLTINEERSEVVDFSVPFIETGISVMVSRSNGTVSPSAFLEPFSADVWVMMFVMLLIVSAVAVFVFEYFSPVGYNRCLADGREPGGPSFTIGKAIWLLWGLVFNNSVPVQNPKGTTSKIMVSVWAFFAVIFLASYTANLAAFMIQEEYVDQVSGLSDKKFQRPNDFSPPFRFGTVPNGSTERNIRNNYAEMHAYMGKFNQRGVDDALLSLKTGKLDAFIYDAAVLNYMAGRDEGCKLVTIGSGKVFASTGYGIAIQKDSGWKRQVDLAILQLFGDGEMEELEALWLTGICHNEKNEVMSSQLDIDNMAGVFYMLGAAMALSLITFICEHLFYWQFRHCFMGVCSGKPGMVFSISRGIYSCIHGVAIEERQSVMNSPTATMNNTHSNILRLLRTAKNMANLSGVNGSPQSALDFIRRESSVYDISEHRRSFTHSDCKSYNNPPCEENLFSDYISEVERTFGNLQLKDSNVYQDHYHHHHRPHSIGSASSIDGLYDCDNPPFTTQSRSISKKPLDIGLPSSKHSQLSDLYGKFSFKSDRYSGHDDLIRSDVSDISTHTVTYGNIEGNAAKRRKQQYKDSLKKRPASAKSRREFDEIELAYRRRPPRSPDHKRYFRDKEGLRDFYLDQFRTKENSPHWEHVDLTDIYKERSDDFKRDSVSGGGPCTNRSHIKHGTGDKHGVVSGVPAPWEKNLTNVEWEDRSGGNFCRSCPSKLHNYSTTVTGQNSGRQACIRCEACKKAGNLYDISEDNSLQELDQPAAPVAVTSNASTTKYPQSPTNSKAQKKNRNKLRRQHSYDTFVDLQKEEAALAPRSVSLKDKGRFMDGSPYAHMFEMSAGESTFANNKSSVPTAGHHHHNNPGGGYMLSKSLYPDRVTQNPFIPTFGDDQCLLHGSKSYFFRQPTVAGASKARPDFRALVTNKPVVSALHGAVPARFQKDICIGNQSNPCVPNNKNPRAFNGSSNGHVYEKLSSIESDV

[7] = Drug metabolism in rat liver microsome assessed as formation of glucuronide metabolite (2S,3S,4S,5R,6S)-6-(4-(3-(4-(4-fluorobenzyl)piperidin-1-yl)prop-1-yn-1-yl)phenoxy)-3,4,5-trihydroxytetrahydro-2H-pyran-2-carboxylic acid in presence of NADPH/UDP-GA by LC-MS analysis; type: ADME; conditions: microsomes
[8] = Drug metabolism in rat liver microsome assessed as formation of glucuronide metabolite (2S,3S,4S,5R,6R)-6-(5-(3-(4-(4-fluorobenzyl)piperidin-1-yl)prop-1-yn-1-yl)-1H-indazol-1-yl)-3,4,5-trihydroxytetrahydro-2H-pyran-2-carboxylic acid in presence of NADPH/UDP-GA by LC-MS analysis; type: ADME; conditions: microsomes
[9] = Metabolic stability in rat liver microsome assessed as intact compound incubated for 90 mins in presence of NADPH by LC-MS analysis; type: ADME; conditions: liver microsomes, read-out: Stability
[10] = Drug metabolism in rat liver microsome assessed as formation of glucuronide metabolite (2S,3S,4S,5R,6R)-6-(5-((R)-3-(4-benzylpiperidin-1-yl)-1-hydroxypropyl)-1H-indazol-1-yl)-3,4,5-trihydroxytetrahydro-2H-pyran-2-carboxylic acid in presence of NADPH/UDP-GA by LC-MS analysis; type: ADME; conditions: microsomes
[11] = biological target: T1, Glutamate receptor ionotropic, NMDA 2B; assay: Antagonist activity at GluN2B receptor (unknown origin) expressed in Xenopus oocytes coexpressing GluN1a at -70 mV holding potential in presence of (S)-glutamate/glycine by TEVC analysis; type: cell-based, Oocyte
[12] = Drug metabolism in rat liver microsome assessed as formation of glucuronide metabolite (2S,3S,4S,5R,6R)-6-(5-((S)-3-(4-benzylpiperidin-1-yl)-1-hydroxypropyl)-1H-indazol-1-yl)-3,4,5-trihydroxytetrahydro-2H-pyran-2-carboxylic acid in presence of NADPH/UDP-GA by LC-MS analysis; type: ADME; conditions: microsomes
[13] = biological target: Glutamate receptor ionotropic, NMDA 2B (Homo sapiens) (UniProt Q13224); assay: Antagonist activity at GluN2B receptor (unknown origin) expressed in Xenopus oocytes coexpressing GluN1a at 1 uM at -70 mV holding potential in presence of (S)-glutamate/glycine by TEVC analysis; type: cell-based; conditions: Oocyte, filed as antagonist
[14] = Drug metabolism in rat liver microsome assessed as formation of glucuronide metabolite (2S,3S,4S,5R,6S)-6-(4-((1R,2S)-3-(4-benzylpiperidin-1-yl)-1-hydroxy-2-methylpropyl)phenoxy)-3,4,5-trihydroxytetrahydro-2H-pyran-2-carboxylic acid in presence of NADPH/UDP-GA by LC-MS analysis; type: ADME; conditions: microsomes

Compound | Ki [1] [µM] | Ki [2] [µM] | Ki [3] [µM] | other results
Cn1ncc2cc(C#CCN3CCC(Cc4ccccc4)CC3)ccc21 | 0.038 | 0.32 | 0.02 | 
Fc1ccc(CC2CCN(CC#Cc3ccc4cn[nH]c4c3)CC2)cc1 | 0.035 | 0.85 | 0.026 | 
OC(CCN1CCC(Cc2ccccc2F)CC1)c1ccc2[nH]ncc2c1 (stereo not given) | 0.038 | 0.119 | 0.224 | 
Cn1cc2cc(C#CCN3CCC(Cc4ccccc4)CC3)ccc2n1 | 0.136 | 0.063 | 0.023 | 
O[C@H](CCN1CCC(Cc2ccccc2)CC1)c1ccc2[nH]ncc2c1 | 0.265 | 0.241 | 0.058 | remaining at 1.5 h [9]: ~67%; Drug metabolism [10]: Metabolite_Notdetected; IC50 [11]: 0.062 µM
C(#Cc1ccc2cn[nH]c2c1)CN1CCC(Cc2ccccc2)CC1 | 0.053 | 0.52 | 0.012 | 
Cn1cc2cc(C#CCN3CCC(Cc4ccc(F)cc4)CC3)ccc2n1 | 0.182 | 0.151 | 0.032 | 
C(=C/c1ccc2[nH]ncc2c1)/CN1CCC(Cc2ccccc2)CC1 | 0.12 | 0.135 | 0.562 | 
Oc1ccc(C#CCN2CCC(Cc3ccccc3)CC2)cc1 |  |  |  | IC50 [4]: 0.1 µM
O[C@@H](CCN1CCC(Cc2ccccc2)CC1)c1ccc2[nH]ncc2c1 | 0.093 | 0.124 | 0.086 | remaining at 1.5 h [9]: ~67%; Drug metabolism [12]: Metabolite_Notdetected; IC50 [11]: 0.072 µM
OC(CCN1CCC(Cc2ccccc2)CC1)c1ccc2[nH]ncc2c1 (stereo not given) | 0.038 | 0.088 | 0.055 | inhibition [13]: Active; inhibition [6]: > 80%; logD [5]: 1.75
O=C(CCN1CCC(Cc2ccc(F)cc2)CC1)c1ccc2[nH]ncc2c1 | 0.056 | 0.051 | 0.021 | 
C[C@@H](CN1CCC(Cc2ccccc2)CC1)[C@@H](O)c1ccc(O)cc1 |  |  |  | Drug metabolism [14]: Metabolite_Detected
Fc1ccc(CC2CCN(C/C=C\c3ccc4[nH]ncc4c3)CC2)cc1 | 0.042 | 0.097 | 0.077 | 

The remaining molecules from weak to strong by Ki [1], led by results:

Ki [1] [µM] | Ki [2] [µM] | Ki [3] [µM] | Compound | other results
0.032 | 0.018 | 0.012 | OC(CCN1CCC(Cc2ccc(F)cc2)CC1)c1ccc2[nH]ncc2c1 (stereo not given) | logD [5]: 2.02
0.029 | 0.063 | 0.04 | Cn1ncc2cc(C#CCN3CCC(Cc4ccc(F)cc4)CC3)ccc21 | 
0.025 | 0.031 | 0.057 | Fc1ccccc1CC1CCN(CC#Cc2ccc3[nH]ncc3c2)CC1 | 
0.02 | 0.037 | 0.01 | Fc1ccc(CC2CCN(C/C=C/c3ccc4[nH]ncc4c3)CC2)cc1 | 
0.02 | 0.019 | 0.017 | O=C(CCN1CCC(Cc2ccccc2F)CC1)c1ccc2[nH]ncc2c1 | 
0.018 | 0.018 | 0.0088 | O=C(CCN1CCC(Cc2ccccc2)CC1)c1ccc2[nH]ncc2c1 | inhibition [13]: Active; inhibition [6]: > 80%; logD [5]: 2.64
0.013 | 0.014 | 0.0042 | Fc1ccc(CC2CCN(CCCc3ccc4[nH]ncc4c3)CC2)cc1 | 
0.013 | 0.013 | 0.0066 | Fc1ccc(CC2CCN(CC#Cc3ccc4[nH]ncc4c3)CC2)cc1 | Drug metabolism [8]: Metabolite_Notdetected; logD [5]: 4.35
0.012 | 0.037 | 0.036 | Oc1ccc(C#CCN2CCC(Cc3ccc(F)cc3)CC2)cc1 | Drug metabolism [7]: Metabolite_Detected; logD [5]: 4.4
0.011 | 0.011 | 0.026 | C(#Cc1ccc2[nH]ncc2c1)CN1CCC(Cc2ccccc2)CC1 | IC50 [4]: 0.38 µM; logD [5]: 4.17
0.0066 | 0.01 | 0.0027 | C(=C\c1ccc2[nH]ncc2c1)/CN1CCC(Cc2ccccc2)CC1 | 
0.0057 | 0.012 | 0.0075 | c1ccc(CC2CCN(CCCc3ccc4[nH]ncc4c3)CC2)cc1 | inhibition [6]: > 80%; logD [5]: 2.63
